Among the data in ChEMBL document CHEMBL1201862, “PubChem BioAssay data set” (2004) are IC50, EC50 and AC50 values, retold here.

The IC50 is the concentration that gives 50% inhibition. By EC50 is commonly meant the concentration at which the effect is half-maximal. For orientation: AC50 means the concentration giving half of the maximal activity seen.

The source made the active and inactive calls.

For test [1], the target named is Cysteine protease ATG4B (Homo sapiens, UniProt Q9Y4P1). Type of test: functional.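 Also: Fluorescence-based dose-response confirmation assay measuring inhibition of ATG4B activity.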
Test [2] is described as follows: cells. It counts as functional.
Test [3] addresses Phospholipase A2 (Homo sapiens, UniProt P04054). Type of test: functional.
Test [4] deals with T1, Tyrosine-protein phosphatase non-receptor type 7 (Homo sapiens, UniProt P35236).
T1 sequence (P35236 whole entry): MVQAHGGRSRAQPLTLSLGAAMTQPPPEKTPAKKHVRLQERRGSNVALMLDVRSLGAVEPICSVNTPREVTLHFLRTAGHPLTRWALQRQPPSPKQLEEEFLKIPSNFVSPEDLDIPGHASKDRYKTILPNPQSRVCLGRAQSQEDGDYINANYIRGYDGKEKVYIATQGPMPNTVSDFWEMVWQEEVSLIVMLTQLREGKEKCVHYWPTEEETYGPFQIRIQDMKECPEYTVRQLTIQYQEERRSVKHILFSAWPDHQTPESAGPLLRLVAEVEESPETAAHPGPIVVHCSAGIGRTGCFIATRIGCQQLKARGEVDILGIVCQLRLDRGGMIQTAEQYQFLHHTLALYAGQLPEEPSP
It counts as functional.

Test [5] concerns the target Glyceraldehyde-3-phosphate dehydrogenase (Homo sapiens, UniProt P04406).
Test [6] has as its target T2, Dual specificity protein phosphatase 6 (Rattus norvegicus, UniProt Q64346).
T2 sequence (Q64346 whole entry): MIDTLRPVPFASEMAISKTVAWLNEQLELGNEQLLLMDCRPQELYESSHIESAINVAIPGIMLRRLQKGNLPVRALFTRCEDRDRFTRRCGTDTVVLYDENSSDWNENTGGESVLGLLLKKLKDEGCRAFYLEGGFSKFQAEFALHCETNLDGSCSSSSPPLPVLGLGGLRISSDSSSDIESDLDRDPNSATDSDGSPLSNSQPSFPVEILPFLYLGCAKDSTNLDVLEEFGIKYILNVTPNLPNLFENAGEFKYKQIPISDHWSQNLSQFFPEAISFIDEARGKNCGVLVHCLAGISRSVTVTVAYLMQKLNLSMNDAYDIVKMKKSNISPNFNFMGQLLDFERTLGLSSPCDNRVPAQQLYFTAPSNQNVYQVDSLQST

Test [7] addresses Induced myeloid leukemia cell differentiation protein Mcl-1 (Homo sapiens, UniProt Q07820). It counts as functional.
For test [8], the target named is T3, Dual specificity protein phosphatase 3 (Homo sapiens, UniProt P51452). The experiment in a line: SAR VHR1 Fluorescent Assay for In Vitro dose response studies. [Related pubchem assays (depositor defined):AID1654, AID1661, AID1878, AID1992, AID2004, AID2070, AID2085]. Type of test: functional.
Test [9] concerns the target T3, Dual specificity protein phosphatase 3. The test can be described thus: MOA VHR1 Fluorescent secondary assay for identification of redox-state modulating compounds. [Related pubchem assays (depositor defined):AID1654, AID1661, AID1878, AID1957].
Test [10] addresses T1, Tyrosine-protein phosphatase non-receptor type 7. The experiment in a line: redox-active compounds inhibiting HePTP phosphatase – biochemical, fluorescence, mechanism study (AID 2068). Type of test: functional.
Test [11] addresses Intestinal-type alkaline phosphatase (Mus musculus, UniProt P24822). The test can be described thus: PubChem AID 488785. It counts as functional.
Test [12] deals with Beta-adrenergic receptor kinase 1 (Homo sapiens, UniProt P25098). The experiment in a line: aptamer displacement from bead-bound GRK2 – biochemical, cherry pick 1, bead flow cytometry, dose response (AID 504500). A general note: A flow cytometer gives signals particle by particle.
Test [13] concerns the target T4, Alkaline phosphatase, tissue-nonspecific isozyme (Homo sapiens, UniProt P05186).
T4 sequence (P05186 whole entry): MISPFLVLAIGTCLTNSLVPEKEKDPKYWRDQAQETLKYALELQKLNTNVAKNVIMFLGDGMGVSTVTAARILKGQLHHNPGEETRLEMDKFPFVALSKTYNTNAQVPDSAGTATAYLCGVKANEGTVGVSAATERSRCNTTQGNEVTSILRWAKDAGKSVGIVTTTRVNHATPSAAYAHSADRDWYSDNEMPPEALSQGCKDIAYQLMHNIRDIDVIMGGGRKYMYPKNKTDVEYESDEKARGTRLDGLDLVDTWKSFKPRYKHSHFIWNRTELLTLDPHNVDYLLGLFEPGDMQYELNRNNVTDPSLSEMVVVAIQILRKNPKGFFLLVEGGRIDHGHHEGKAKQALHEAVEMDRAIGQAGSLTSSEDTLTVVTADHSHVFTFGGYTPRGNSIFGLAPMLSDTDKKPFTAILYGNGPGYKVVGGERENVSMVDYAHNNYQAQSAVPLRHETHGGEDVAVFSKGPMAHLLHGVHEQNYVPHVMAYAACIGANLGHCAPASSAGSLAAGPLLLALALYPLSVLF
The experiment in a line: TNAP enzyme inhibition by screening hits, dose response, selectivity assay for mouse IAP inhibitor project, biochemical, human TNAP, uHTS hits (AID 488906). It counts as functional.

Test [14] has as its target Intestinal-type alkaline phosphatase (Homo sapiens, UniProt P09923). The experiment in a line: inhibition of human intestinal alkaline phosphatase – biochemical, dose response (AID 488876). Type of test: functional.
The target in test [15] is T2, Dual specificity protein phosphatase 6. It counts as functional.
Test [16] concerns the target T5, Cytochrome P450 1A2 (Homo sapiens, UniProt P05177).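 Also: PubChem cytochrome P450 panel assay, CYP1A2 panel member.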
T5 sequence (P05177 whole entry): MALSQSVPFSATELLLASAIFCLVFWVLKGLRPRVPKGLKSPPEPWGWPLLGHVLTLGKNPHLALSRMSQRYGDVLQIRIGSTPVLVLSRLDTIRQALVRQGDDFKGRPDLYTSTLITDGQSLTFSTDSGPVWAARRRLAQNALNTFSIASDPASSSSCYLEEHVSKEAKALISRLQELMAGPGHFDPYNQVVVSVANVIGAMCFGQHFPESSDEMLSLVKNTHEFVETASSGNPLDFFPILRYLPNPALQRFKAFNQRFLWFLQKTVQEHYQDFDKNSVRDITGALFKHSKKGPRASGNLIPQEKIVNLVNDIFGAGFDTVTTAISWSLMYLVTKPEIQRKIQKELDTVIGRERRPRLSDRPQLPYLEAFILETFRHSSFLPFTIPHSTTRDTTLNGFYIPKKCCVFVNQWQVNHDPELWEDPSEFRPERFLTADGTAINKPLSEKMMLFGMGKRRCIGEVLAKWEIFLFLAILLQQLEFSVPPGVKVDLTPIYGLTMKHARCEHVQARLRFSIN

Test [17] concerns the target Cytochrome P450 2C9 (Homo sapiens, UniProt P11712).
Test [18] concerns the target Phospholipase D1 (Homo sapiens, UniProt Q13393). The experiment in a line: cellular phospholipase D1 inhibition IC50 – cell-based, dose response (AID 602151).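 Also: cellular PLD1 assay in Calu-1 cells stimulated with PMA.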 It counts as functional.
For test [19], the target named is Phospholipase D2 (Homo sapiens, UniProt O14939). The experiment in a line: cellular phospholipase D2 inhibition IC50 – cell-based, dose response (AID 602147).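 Also: cellular assay in HEK293 cells overexpressing GFP-tagged PLD2.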 Type of test: functional.
Test [20] addresses Photoreceptor-specific nuclear receptor (Homo sapiens, UniProt Q9Y5X4). Type of test: functional.
Test [21] can be described thus: CCR5-tropic HIV-1 fusion blockers – cell-based, CCR5-tropic Env, dose response (AID 2279). Type of test: functional.
Test [22] deals with Peroxisome proliferator-activated receptor gamma/Nuclear receptor corepressor 2 (Homo sapiens, UniProt P37231+Q9Y618). Type of test: functional.
Test [23] has as its target DNA topoisomerase (Yersinia pestis, UniProt A0A2S9PM60). The experiment in a line: Yersinia topoisomerase I cleavage product accumulation – biochemical, cherry-pick, dose response (AID 588525).

T3 sequence (P51452 whole entry): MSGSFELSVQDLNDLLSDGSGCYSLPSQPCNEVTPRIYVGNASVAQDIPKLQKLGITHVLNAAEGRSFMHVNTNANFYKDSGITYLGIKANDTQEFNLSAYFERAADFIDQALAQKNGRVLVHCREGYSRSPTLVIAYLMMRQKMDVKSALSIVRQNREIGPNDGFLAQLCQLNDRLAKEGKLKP
Chain of Photoreceptor-specific nuclear receptor (Q9Y5X4 whole entry, the tested form may be a part): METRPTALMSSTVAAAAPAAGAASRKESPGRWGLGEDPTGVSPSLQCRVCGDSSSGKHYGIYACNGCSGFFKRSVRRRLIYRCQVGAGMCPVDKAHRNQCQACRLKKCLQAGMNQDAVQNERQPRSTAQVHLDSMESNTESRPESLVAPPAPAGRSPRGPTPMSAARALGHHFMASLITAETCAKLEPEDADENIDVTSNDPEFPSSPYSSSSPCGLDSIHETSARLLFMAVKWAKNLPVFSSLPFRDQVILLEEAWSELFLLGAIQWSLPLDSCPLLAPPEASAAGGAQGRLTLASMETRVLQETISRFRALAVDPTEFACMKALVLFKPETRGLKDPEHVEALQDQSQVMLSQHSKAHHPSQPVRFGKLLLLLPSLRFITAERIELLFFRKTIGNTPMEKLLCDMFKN
Chain of Cytochrome P450 2C9 (P11712 whole entry): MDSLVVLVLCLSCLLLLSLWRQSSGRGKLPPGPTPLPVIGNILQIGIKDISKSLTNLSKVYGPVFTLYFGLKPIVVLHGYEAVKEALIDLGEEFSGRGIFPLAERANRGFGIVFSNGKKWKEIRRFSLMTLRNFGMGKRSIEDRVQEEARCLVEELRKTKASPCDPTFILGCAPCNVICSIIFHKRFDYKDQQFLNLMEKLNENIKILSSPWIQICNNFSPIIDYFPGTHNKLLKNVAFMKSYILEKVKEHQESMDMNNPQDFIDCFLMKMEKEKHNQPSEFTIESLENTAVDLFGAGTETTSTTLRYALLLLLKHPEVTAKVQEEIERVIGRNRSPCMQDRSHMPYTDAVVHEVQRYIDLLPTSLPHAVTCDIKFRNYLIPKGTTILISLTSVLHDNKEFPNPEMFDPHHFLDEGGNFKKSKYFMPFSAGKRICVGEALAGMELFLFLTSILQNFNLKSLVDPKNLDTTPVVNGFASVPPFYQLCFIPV
Chain of Glyceraldehyde-3-phosphate dehydrogenase (P04406 whole entry): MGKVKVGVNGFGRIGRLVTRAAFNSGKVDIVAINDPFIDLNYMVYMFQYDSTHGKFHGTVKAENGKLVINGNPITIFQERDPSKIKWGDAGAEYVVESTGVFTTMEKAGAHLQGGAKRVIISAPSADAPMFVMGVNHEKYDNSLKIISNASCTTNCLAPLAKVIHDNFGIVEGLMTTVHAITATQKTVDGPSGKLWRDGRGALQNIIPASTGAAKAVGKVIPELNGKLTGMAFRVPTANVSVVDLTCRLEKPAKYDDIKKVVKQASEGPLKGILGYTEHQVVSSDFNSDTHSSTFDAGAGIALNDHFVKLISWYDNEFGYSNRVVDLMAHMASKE
Chain of DNA topoisomerase (A0A2S9PM60 whole entry): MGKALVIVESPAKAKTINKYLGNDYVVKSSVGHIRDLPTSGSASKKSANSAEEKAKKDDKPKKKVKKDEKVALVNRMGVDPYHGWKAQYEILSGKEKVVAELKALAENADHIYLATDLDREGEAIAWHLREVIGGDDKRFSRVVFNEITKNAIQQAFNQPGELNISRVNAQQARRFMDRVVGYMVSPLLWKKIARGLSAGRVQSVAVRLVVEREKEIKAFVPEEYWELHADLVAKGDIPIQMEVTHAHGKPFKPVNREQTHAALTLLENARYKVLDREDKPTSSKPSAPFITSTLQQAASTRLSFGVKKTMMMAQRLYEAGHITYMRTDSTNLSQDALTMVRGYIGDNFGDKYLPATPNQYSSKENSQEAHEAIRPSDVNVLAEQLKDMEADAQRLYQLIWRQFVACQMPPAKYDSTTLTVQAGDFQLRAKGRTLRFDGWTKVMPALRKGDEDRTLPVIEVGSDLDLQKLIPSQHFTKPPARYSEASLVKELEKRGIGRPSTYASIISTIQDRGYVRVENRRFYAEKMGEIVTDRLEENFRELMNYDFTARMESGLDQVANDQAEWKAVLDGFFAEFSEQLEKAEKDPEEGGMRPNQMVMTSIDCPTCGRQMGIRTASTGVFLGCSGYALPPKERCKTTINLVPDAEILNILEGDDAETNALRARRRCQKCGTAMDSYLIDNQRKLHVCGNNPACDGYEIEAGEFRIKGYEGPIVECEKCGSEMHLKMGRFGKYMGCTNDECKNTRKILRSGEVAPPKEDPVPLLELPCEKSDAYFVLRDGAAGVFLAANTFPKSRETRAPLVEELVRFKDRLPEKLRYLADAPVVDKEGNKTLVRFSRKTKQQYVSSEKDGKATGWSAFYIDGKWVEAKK
Chain of Induced myeloid leukemia cell differentiation protein Mcl-1 (Q07820 whole entry): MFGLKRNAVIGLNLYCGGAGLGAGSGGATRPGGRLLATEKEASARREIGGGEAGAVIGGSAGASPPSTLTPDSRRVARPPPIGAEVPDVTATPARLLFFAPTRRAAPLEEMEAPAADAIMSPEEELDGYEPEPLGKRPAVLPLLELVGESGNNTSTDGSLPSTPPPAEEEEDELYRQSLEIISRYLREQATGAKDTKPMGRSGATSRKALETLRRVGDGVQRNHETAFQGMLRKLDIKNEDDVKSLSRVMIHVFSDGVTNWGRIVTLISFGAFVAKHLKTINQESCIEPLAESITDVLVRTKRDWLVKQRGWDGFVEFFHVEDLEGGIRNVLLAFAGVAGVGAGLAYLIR
Chain of Intestinal-type alkaline phosphatase (Homo sapiens, UniProt P09923) (P09923 whole entry): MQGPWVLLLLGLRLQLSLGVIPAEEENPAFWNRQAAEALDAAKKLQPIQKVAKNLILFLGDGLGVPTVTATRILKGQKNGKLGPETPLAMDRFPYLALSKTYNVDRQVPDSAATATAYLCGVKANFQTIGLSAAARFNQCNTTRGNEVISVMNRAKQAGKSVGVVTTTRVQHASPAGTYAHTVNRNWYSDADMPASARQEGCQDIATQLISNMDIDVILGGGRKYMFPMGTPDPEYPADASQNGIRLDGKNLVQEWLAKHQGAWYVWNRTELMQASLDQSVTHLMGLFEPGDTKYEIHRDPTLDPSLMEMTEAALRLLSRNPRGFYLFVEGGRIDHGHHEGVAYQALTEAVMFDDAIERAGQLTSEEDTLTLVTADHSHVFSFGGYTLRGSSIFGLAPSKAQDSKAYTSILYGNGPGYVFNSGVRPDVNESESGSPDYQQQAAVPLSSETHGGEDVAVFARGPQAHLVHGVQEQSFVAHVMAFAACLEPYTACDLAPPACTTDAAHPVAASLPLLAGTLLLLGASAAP
Chain of Intestinal-type alkaline phosphatase (Mus musculus, UniProt P24822) (P24822 whole entry): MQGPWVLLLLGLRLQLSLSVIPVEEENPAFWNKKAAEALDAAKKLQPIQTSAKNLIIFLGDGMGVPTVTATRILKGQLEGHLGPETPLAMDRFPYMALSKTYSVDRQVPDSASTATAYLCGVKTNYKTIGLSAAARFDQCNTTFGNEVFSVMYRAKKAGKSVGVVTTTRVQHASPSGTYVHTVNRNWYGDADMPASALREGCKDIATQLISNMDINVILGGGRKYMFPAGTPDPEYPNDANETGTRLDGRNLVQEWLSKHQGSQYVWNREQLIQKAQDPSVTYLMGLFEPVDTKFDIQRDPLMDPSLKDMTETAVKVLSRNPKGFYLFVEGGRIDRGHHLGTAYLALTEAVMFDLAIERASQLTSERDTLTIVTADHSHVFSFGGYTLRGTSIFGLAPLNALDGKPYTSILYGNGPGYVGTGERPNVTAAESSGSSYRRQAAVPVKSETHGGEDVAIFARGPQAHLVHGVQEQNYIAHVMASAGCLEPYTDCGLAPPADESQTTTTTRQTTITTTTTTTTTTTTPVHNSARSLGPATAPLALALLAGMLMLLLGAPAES
Chain of Phospholipase D2 (O14939 whole entry): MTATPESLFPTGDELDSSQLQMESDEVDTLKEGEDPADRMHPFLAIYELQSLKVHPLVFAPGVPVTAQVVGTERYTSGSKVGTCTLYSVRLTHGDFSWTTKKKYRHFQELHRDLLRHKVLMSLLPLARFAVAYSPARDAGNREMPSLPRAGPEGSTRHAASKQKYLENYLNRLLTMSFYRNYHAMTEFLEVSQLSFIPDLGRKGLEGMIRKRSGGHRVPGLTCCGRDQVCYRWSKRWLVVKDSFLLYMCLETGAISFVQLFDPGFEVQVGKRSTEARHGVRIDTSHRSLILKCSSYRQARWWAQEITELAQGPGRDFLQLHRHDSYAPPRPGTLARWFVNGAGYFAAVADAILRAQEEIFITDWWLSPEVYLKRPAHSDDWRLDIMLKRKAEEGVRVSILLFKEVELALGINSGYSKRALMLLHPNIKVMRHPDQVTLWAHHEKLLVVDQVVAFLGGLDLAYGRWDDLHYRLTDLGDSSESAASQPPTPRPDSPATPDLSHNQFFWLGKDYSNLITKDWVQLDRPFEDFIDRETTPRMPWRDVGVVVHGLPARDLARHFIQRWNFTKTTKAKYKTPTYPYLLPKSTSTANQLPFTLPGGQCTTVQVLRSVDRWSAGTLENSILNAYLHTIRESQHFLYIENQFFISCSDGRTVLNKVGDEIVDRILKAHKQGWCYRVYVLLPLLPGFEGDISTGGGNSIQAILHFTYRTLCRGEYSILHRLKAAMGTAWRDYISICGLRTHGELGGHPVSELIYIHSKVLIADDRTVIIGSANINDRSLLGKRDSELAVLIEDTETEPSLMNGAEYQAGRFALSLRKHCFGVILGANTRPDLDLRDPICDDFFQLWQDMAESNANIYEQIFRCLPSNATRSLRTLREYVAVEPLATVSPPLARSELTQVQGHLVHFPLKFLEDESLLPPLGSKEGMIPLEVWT
Chain of Phospholipase A2 (P04054 whole entry): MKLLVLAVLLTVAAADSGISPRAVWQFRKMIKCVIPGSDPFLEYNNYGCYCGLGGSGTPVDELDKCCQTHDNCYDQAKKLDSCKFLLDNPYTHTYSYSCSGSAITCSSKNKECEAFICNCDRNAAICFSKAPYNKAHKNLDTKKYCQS

`O=[N+]([O-])c1cc2oc3c(c2c(/C=N/Cc2ccccc2)c1O)CCCC3`: the 50% inhibitory concentration (IC50) was 1.28 µM (active) in test [1], 20.6 µM (active) in test [2] and 0.502 µM (active) in test [3].
As to `O=C(O)c1ccccc1-c1ccc(/C=c2\sc3nc4cc(Br)cnc4n3c2=O)o1`, the IC50 was 1.26 µM (active) in [4]; 2.31 µM (active) in [5]; 6.8 µM (active) in test [6]; 3.32 µM (active) in [7]; 1.25 µM (active) in test [8]; 0.308 µM (active) in test [9]. In addition, the IC50 in [10] is 0.159 µM (active); in [11], 6.36 µM (active); in test [13] it was 31.7 µM (active); in test [14] it was > 100 µM (inactive); in [15], 4.92 µM (active). In [12], the EC50 is 2.39 µM (active). Also, the figures for the concentration at half-maximal activity (AC50) in [16] and in [17] were 17.8 µM (inconclusive) and 20 µM (inconclusive), respectively.
As for `C[C@@H](CN1CCC(n2c(=O)[nH]c3cc(I)ccc32)CC1)NC(=O)c1ccc(Cl)cc1`, the IC50 was 0.016 µM (active) in test [18] and 2.4 µM (active) in test [19].
As for `Cc1cc(N2C(=O)C(O)=C(C(=O)c3cc4ccccc4o3)C2c2cccc(Br)c2)no1` (stereo not drawn), the results for the IC50 in test [20], in test [21] and in [22] were > 39.8 µM (not active), > 50 µM (active) and 1.97 µM (active), respectively. Besides, the AC50 in test [23] is 3.24 µM (active).
